# In patent US5593970A, “Heterocyclic anthracycline analogs” (priority 1994, dated 1997):
# Test system: DMS 273
# Assay: NCI sulforhodamine B assay
# Format: cell-based, human
smiles,measurement,setting,value
"COC(=O)C1CC2=C(C(=O)c3c(cc4ccccc4c3O)C2=O)C(O[C@H]2C[C@H](NC(=O)C(F)(F)F)[C@H](O)[C@H](C)O2)O1 (mixture of isomers) [BCH-242, (1'S,1R,3S) and (1'S, 1S,3R)-Methyl[11-hydroxy-1-2',3',6'-trideoxy-3-trifluroacetamido-L-lyxohexopyranose)-5,12-dioxo-3,4,5,12-tetrahydroanthraceno[2,3-c]pyran-3-yl]formate]",Log10 LC50,"DMS 273, 2880 min",-5.31 log molar
same,CC50,"Homo sapiens, DMS-273, 48 h, read-out: Log10 LC50, DMS 273 (converted)",9.77 µM
